# Assay results: patent US9192595B2, “Compounds with a skin pigmenting activity and pharmaceutical or cosmetic compositions containing them” (priority 2010, dated 2015)
# Experiments:
# [1] = tested on: tyrosinase; assay: Tyrosinase enzymatic activity by spectrophotometry on melanocyte cell lysates; assay type: cell-based, human; details: 72 h; 40 and 55 μM; NHM LP and NHM HP; p<0.05 vs. Ctr; FIG. 4
# Text: (§1) A second experimental study assessed the action of the compounds according to the invention on the phenomena of melanocyte differentiation in the melanogenic process, as described below with reference to the attached drawings in FIGS. 3, 4 and 5. For this purpose, octatrienoic acid (called Octa in the diagrams, for the sake of brevity) was used on foreskin primary melanocyte cultures with varying degrees of basal pigmentation to assess the following parameters: • a) mRNA and tyrosinase protein expression, using real-time RT-PCR and Western-blot methods; • b) enzymatic activity of tyrosinase by spectrophotometry; • c) Quantification of melanin genesis by spectrophotometry.
# The activity of tyrosinase was evaluated by spectrophotometry on cell lysates derived from specimens incubated for 72 h with octatrienoic acid at concentrations of 40 and 55 μM, vs. control culture.
# For these columns, *=p<0.05 vs. Ctr.
# [2] = tested on: Normal human scalp skin; assay: Epidermal pigmentation in full-thickness skin organ culture (quantitative Masson-Fontana staining); assay type: cell-based
# Protocol: This experimental study on the active ingredient octatrienoic acid according to the invention was based on organ cultures of skin biopsies, which were tested in 4 groups (3 skin biopsies/well) and incubated with different concentrations of the active ingredient for 6 days.
# Normal human scalp skin was obtained from a person undergoing routine face-lift surgery, subject to their informed consent. All experiments were performed in accordance with the Declaration of Helsinki, with the approval of an ad hoc Ethical Committee.
# Biopsies 3-4 mm in size were cultured at 37° C. for 6 days in Williams' E medium (Biochrom, Cambridge, U.K.) supplemented with 100 IU mL^−1 penicillin, 10 μg mL^−1 streptomycin (Gibco, Karlsruhe, Germany), 10 μg mL^−1 insulin (Sigma, Taufkirchen, Germany), 10 ng mL^−1 hydrocortisone (Sigma) and 2 mmol L^−1 L-glutamine (Invitrogen, Paisley, UK).
# Three different concentrations of octatrienoic acid (0.1 μg/mL, 0.25 μg/mL, 0.5 μg/mL) or the reference medium were administered once, at each change of medium (i.e. every 48 hours).
# For histochemical melanin assessment, Masson-Fontana staining was applied to frozen adult human scalp skin sections. Melanin stained as brown spots and the degree of pigmentation was evaluated using the quantitative Masson-Fontana test, as described elsewhere (Ito et al., 2005). This method gives a sensitive and reliable indication of changes in melanin synthesis, as shown by standard tyrosinase expression and enzyme activity assays. (Kauser et al., 2006)
# Staining intensity was analysed in a previously-defined reference area of the epidermis using ImageJ software (National Institute of Health).
# The statistical analysis was performed using Student's two-tailed t-test for independent samples.
# [3] = tested on: tyrosinase protein; assay: Western blot analysis of tyrosinase protein expression in primary melanocyte cultures; assay type: cell-based, human; details: 72 h; same doses (40 and 55); Western blot on protein extracts
# Text: as §1
# [4] = tested on: tyrosinase mRNA; assay: Tyrosinase mRNA expression by real-time RT-PCR in primary melanocyte cultures; assay type: cell-based, human; details: 24 h incubation; 40 and 55 μm; NHM LP and NHM HP; vs. Ctr; FIG. 3
# Text: as §1
# Tyrosinase mRNA expression was assessed by real-time RT-PCR on mRNA specimens extracted from cells after 24 h of incubation with octatrienoic acid at concentrations of 40 and 55 μm.
# Forskoline (FSK), a known adenylate cyclase activator capable of promoting melanin synthesis, was used as a control for comparison with the activity of octatrienoic acid.
# For these columns, *=p<0.01 vs. Ctr, **=p<0.001 vs. Ctr, and $=p<0.05 vs. Ctr.
# [5] = tested on: foreskin primary melanocyte cultures; assay: Intracellular melanin content by spectrophotometry in melanocyte cell lysates; assay type: cell-based, human; details: 72 h; 40 and 55 μM; NHM LP and NHM HP; vs. Ctr; FIG. 5
# Text: as §1
# In FIG. 5, *=p<0.05 vs. Ctr, **=p<0.01 vs. Ctr, $=p<0.001 vs. ctr.
structure (smiles),measurement,setting,value
C/C=C/C=C/C=C/C(=O)O [octatrienoic acid],"tyrosinase enzymatic activity, % of the Ctr",[1],significant increase
same,intensity of Masson-Fontana staining,"[2]; day 6, each dose (0.1, 0.25, 0.5 μg/mL) by comparison with the medium alone, FIG. 1",marked increase
same,pigmentation in the basal layer of the epidermis,"[2]; day 6, each dose administered, microphotographs x200, FIG. 2",increased pigmentation
same,skin pigmentation,"[2]; skin culture, all three doses tested (0.1, 0.25, 0.5 μg/mL), 6 days",increased the skin pigmentation
same,melanogenic enzyme (tyrosinase) protein expression,[3],induced melanogenic enzyme protein expression
same,"tyrosinase mRNA expression (Rel tyr mRNA expression, fold change)",[4],significant induction
same,quantity of intracellular melanins,[5],significant induction
